Results: patent US20250346582A1, “SPLEEN TYROSINE KINASE INHIBITORS AND METHODS OF USE THEREOF” (THE BOARD OF TRUSTEES OF THE UNIVERSITY OF ILLINOIS, priority 2022, published 2025)

What was measured:
[1] = tested on: plasma membrane translocation of EGFP-Syk WT; assay: Subcellular localization of EGFP-Syk WT in DT40 cells; type: cell-based, chicken; conditions: IgM stimulation
Protocol: DT40-Syk^−/− cells transfected with EGFP-Syk WT (or K220/K222A) and mCherry-mCherry-eMyoX-tPH were imaged under 100× magnification with a Nikon Eclipse Ti2 microscope using the NIS element software. For IgM stimulation, cells were dropped on the IgM-coated surface (10 ng/ml) covered with the imaging buffer (HBSS pH 7.4, 2 mM MgCl2, 1% FBS) and incubated for 10 min before imaging. Pearson's correlation coefficient (y) was calculated using Coloc 2, which is a Fiji's plugin for colocalization analysis. The plasma membrane was selected as the region of interest for calculation of the coefficient. Averages ±s.d.'s of γ values were calculated from triplicate determinations.

[2] = target: T1, Syk (Homo sapiens, UniProt P43405); assay: Streptavidin pull down assay with WC36B in MV4-11 cells; type: cell-based; conditions: MV4-11 cells, 5 μM for 24 h, immunoblotting
T1 construct: host or cells: MV4-11 AML cells (naive and entospletinib-resistant)
Protocol: (§1) Streptavidin-coated beads (Dynabeads™ M280 streptavidin beads; ThermoFisher) were washed twice with 1 ml of PBST (PBS+0.1% Tween 20) and resuspended in 100 μl of PBST. WC36B (or biotin) (10 mM) was added to 100 μl of the bead suspension and the mixture was incubated at room temperature for 15 min with gentle shaking. The mixture was then vortexed for 5 s and the tube was placed on a magnet for 1 min. After discarding the supernatant, the beads were resuspended in the same volume of the washing buffer. Washing is repeated three times to remove excess WC36B. WC36B-coated beads were then incubated with the cell lysate (MV-4-11) for 30 min at room temperature with gentle shaking. Protein-coated beads were separated with a magnet for 2-3 min and washed 4-5 times with PBS containing 0.1% BSA. The protein was then removed from the beads by boiling the beads in the SDS-polyacrylamide gel electrophoresis (PAGE) application buffer. Samples were concentrated for the mass spectrometry analysis and the western blot assay.

[3] = target: T1, Syk; assay: Mass spectrometry proteomics of WC36B-binding cellular proteins; type: cell-based; conditions: biotin as negative control
Protocol: as §1
MS analysis was performed to identify proteins captured by WC36B and biotin. […]

[4] = target: T2, pZAP70 (Homo sapiens, UniProt P43403); assay: Western blot inhibition of ZAP70 phosphorylation in Jurkat T cells; type: cell-based; conditions: Jurkat T cells stimulated by OKT3; 5 μM overnight
T2 construct: host or cells: Jurkat T cells, OKT3-stimulated
T2 sequence (P43403 1-619): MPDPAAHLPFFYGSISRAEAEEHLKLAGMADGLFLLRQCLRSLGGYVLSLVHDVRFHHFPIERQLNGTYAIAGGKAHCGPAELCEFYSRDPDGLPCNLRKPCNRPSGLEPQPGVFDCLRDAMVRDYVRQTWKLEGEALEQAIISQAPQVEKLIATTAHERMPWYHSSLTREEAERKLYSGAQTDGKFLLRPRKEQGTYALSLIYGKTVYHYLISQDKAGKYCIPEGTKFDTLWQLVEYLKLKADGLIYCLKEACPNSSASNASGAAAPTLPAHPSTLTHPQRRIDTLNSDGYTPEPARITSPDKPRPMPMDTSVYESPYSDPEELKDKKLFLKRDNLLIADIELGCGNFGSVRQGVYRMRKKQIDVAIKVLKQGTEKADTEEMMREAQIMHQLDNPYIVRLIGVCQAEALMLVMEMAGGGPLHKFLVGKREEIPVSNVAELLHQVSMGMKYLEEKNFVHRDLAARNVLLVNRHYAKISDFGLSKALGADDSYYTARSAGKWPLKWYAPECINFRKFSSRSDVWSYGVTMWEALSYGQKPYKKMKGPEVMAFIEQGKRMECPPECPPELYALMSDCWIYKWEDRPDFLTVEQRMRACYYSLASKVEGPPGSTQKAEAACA
Protocol: (a) Cellular efficacy of WC35, WC36, and WC38 was determined by dose-dependent inhibition of Syk phosphorylation in Raji B cells. (b) Imax and IC50 values were determined by non-linear least-squares analysis of data using the equation: […] Each data represents average ±s.d. from triplicate measurements. […] Jurkat T cells were stimulated by OKT3. Cells were seeded at a density of 3.0×10^5 cells/well prior to incubation with inhibitors. […] IgG2 for AML cells, IgM for Raji B cells, and OKT3 (Biolegend) for Jurkat cells. […] Samples were analyzed by SDS-PAGE. Proteins were separated and transferred to Immobilon-P polyvinylidene difluoride membrane (Millipore Sigma). […] The chemiluminescence intensity of protein bands in the gel was analyzed and documented by the Azure […] Imaging System.

[5] = tested on: phosphorylation of Syk, ERK1/2 and STAT3/5; assay: Western blot of phosphorylation in entospletinib-resistant MV4-11 cells; type: cell-based; conditions: 5 μM
Protocol: (§2) Cells were seeded at a density of 3.0×10^5 cells/well prior to incubation with inhibitors. Cells were incubated with 1-5 μM of Syk inhibitors overnight and stimulated with different antibodies: IgG2 for AML cells, IgM for Raji B cells, and OKT3 (Biolegend) for Jurkat cells. The cells were lysed in NP40 lysis buffer (50 mM Tris, pH 7.5, 150 mM NaCl, 1 mM EDTA, 1% NP40, 10% glycerol, 10 mM NaF, 10 mM Na3VO4, and the protease inhibitor cocktail) at 4° C. and the cell debris was removed by centrifugation. Samples were analyzed by SDS-PAGE. Proteins were separated and transferred to Immobilon-P polyvinylidene difluoride membrane (Millipore Sigma). The membrane was blocked with 5% bovine serum albumin for 1 h and incubated overnight at 4° C. with various antibodies (1:1000 dilution for all antibodies). After the unbound antibodies were removed by washing with 0.1% Tris buffer saline with 0.1% Tween20, the membranes were incubated with the horseradish peroxidase secondary antibody (1:5000 dilution) for 1 h at room temperature. The membranes were washed three more times with 0.1% Tris buffer saline with 0.1% Tween20 to remove the unbound horseradish peroxidase secondary antibody before imaging. The chemiluminescence intensity of protein bands in the gel was analyzed and documented by the Azure 500Q Imaging System.
(§3) Then the concentration was maintained at 5 μM.

[6] = tested on: MV4-11 cells; assay: Generation of drug-resistant MV4-11 cells under chronic treatment; type: cell-based; conditions: inhibitor increased from 0.5 to 5 μM over 10 weeks
Protocol: as §3

[7] = tested on: phosphorylation of ERK1/2 and STAT3/5; assay: Western blot of phosphorylation in HL60 cells; type: cell-based; conditions: RAS-mutated HL60 cells; 5 μM
Protocol: FIGS. 3A-3D show the inhibition of the signaling activity and proliferation of HL-60 AML cells by Syk-cSH2 inhibitors. […] DMSO was used as a negative control and GAPDH as a gel loading control. […] (c) Inhibition of phosphorylation of Syk, STAT3/5 and ERK1/2 in patient-derived primary AML cells by WC36. Cells were cultured overnight in the presence of CD34+ cytokine supplement. DMSO was used as a negative control. Representative data from one (Patient 1) of four patient samples are shown here. (d) Inhibition of the proliferation of four patient AML cells by WC36 measured by the colony growth assay. The number of colonies after WC36 treatment was normalized to the enumerated colonies after DMSO treatment.
as §2

CS(=O)(=O)N1CCN(Cc2cc3nc(-c4cccc5[nH]ncc45)nc(N4CCOCC4)c3s2)CC1 [GDC-0941]
plasma membrane translocation of EGFP-Syk WT [1]: greatly suppressed

[N-]=[N+]=C(C(=O)NCCNC(=O)CCCC[C@H]1SC[C@H]2NC(=O)N[C@H]21)C(Nc1ncccn1)c1c[nH]c2ccccc12 (stereo partly drawn) [WC36B, N-(2-(2-diazo-3-(1H-indol-3-yl)-3-(pyrimidin-2-ylamino)propanamido)ethyl)-5-((3aR,4R,6aS)-2-oxohexahydro-1H-thieno[3,4d]imidazol-4-yl)pentanamide]
capture of Syk by streptavidin pulldown [2]: targets Syk in MV4-11 cells | proteins captured (proteomics) [3]: Syk is the single major protein that is captured by the WC36 pharmacophore

c1cn2cc(-c3ccc4cn[nH]c4c3)nc(Nc3ccc(N4CCOCC4)cc3)c2n1 [entospletinib, reference compound]
inhibition of ZAP-70 phosphorylation [4]: significantly inhibited ZAP-70 phosphorylation | inhibition of phosphorylation of Syk, ERK1/2 and STAT3/5 [5]: could not inhibit phosphorylation of ERK1/2 and STAT3/5 in resistant MV4-11 cells while still potently inhibiting Syk phosphorylation | development of acquired resistance [6]: readily developing resistance to entospletinib | inhibition of phosphorylation of ERK1/2 and STAT3/5 [7]: could not suppress phosphorylation of ERK1/2 and STAT3/5
